Test results as given in patent US8217066B2, “Compounds as lysophosphatidic acid receptor antagonists” (Amira Pharmaceuticals, Inc., priority 2009, dated 2012).
pIC50: −log10 of the molar value.

Molecular target: T1, human LPA1 (Homo sapiens, UniProt Q92633)
T1 construct: the full-length cDNA for human LPA1 was obtained by PCR of the reverse transcription reaction; expressed in transfected cells
Test: LPA1 calcium flux assay (HLPA1 Ca Flux)
Format: cell-based
Details: CHO cells stably expressing human LPA1, stimulated with 10 nM LPA
Experimental: A 1.1 kb cDNA encoding the human LPA1 receptor was cloned from human lung. Human lung RNA (Clontech Laboratories, Inc. USA) was reverse transcribed using the RETROscript kit (Ambion, Inc.) and the full-length cDNA for human LPA1 was obtained by PCR of the reverse transcription reaction. The nucleotide sequence of the cloned human LPA1 was determined by sequencing and confirmed to be identical to the published human LPA1 sequence (An et al. Biochem. Biophys. Res. Commun. 231:619 (1997). The cDNA was cloned into the pcDNA5/FRT expression plasmid and transfected in CHO cells using lipofectamine 2000 (Invitrogen Corp., USA). Clones stably expressing human LPA1 were selected using hygromycin and identified as cells that show Ca-influx in response to LPA.
Human LPA1 or LPA3 expressing CHO cells are seeded at 20,000-45,000 cells per well in a 96-well poly-D-lysine coated plate one or two days before the assay. Prior to the assay, the cells are washed once with PBS and then cultured in serum-free media overnight. On the day of the assay, a calcium indicator dye (Calcium 4, Molecular Devices) in assay buffer (HBSS with Ca^2+ and Mg^2+ and containing 20 mM Hepes and 0.3% fatty-acid free human serum albumin) is added to each well and incubation continued for 1 hour at 37° C. […] of test compounds in 2.5% DMSO are added to the cells and incubation continued at room temperature for 30 minutes. Cells are the stimulated by the addition of 10 nM LPA and intracellular Ca^2+ measured using the Flexstation 3 (Molecular Devices). IC50s are determined using Graphpad prism analysis of drug titration curves.

T1 sequence (Q92633 whole entry): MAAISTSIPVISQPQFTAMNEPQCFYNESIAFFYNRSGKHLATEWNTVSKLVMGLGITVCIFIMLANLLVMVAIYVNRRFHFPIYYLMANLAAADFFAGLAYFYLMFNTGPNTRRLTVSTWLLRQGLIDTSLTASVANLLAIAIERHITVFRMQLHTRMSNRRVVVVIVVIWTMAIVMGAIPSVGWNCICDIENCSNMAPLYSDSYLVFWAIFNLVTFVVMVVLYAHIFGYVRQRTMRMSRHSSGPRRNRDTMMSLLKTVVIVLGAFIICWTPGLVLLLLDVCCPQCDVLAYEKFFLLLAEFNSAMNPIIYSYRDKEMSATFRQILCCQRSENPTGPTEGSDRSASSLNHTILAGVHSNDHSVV

Row | pIC50 | Structure (SMILES)
1 | > 6.52 | Cc1noc(-c2ccc(-c3ccc(C4(C(=O)O)CC4)cc3)cc2)c1C(O)CNCc1ccccc1 (stereo not drawn) [Compound 29, 1-{4′-[4-(2-Benzylamino-1-hydroxy-ethyl)-3-methyl-isoxazol-5-yl]-biphenyl-4-yl}-cyclopropanecarboxylic acid]
2 | > 6.52 | Cc1noc(-c2ccc(-c3ccc(C4(C(=O)O)CC4)cc3)cc2)c1NC(C)CCc1cccc(C(F)(F)F)c1 (stereo not drawn) [Compound 31, 1-(4′-{3-Methyl-4-[1-methyl-3-(3-trifluoromethyl-phenyl)-propylamino]-isoxazol-5-yl}-biphenyl-4-yl)-cyclopropanecarboxylic acid]
3 | > 6.52 | Cc1noc(-c2ccc(-c3ccc(C4(C(=O)O)CC4)cc3)cc2)c1C(O)CCc1ccccc1 (stereo not drawn) [Compound 34, 1-{4′-[4-(1-Hydroxy-3-phenyl-propyl)-3-methyl-isoxazol-5-yl]-biphenyl-4-yl}-cyclopropanecarboxylic acid]
4 | > 6.52 | Cc1noc(-c2ccc(-c3ccc(C4(C(=O)O)CC4)cc3)cc2)c1C(O)CCc1cccc(C(F)(F)F)c1 (stereo not drawn) [Compound 35, 1-(4′-{4-[1-Hydroxy-3-(3-trifluoromethyl-phenyl)-propyl]-3-methyl-isoxazol-5-yl}-biphenyl-4-yl)-cyclopropanecarboxylic acid]
5 | > 6.52 | Cc1noc(-c2ccc(-c3ccc(C4(C(=O)O)CC4)cc3)cc2)c1C(O)CCCc1cccc(C(F)(F)F)c1 (stereo not drawn) [Compound 36, 1-(4′-{4-[1-Hydroxy-4-(3-trifluoromethyl-phenyl)-butyl]-3-methyl-isoxazol-5-yl}-biphenyl-4-yl)-cyclopropanecarboxylic acid]
6 | > 6.52 | Cc1cccc(CCCC(O)c2c(C)noc2-c2ccc(-c3ccc(C4(C(=O)O)CC4)cc3)cc2)c1 (stereo not drawn) [Compound 37, 1-{4′-[4-(1-Hydroxy-4-m-tolyl-butyl)-3-methyl-isoxazol-5-yl]-biphenyl-4-yl}-cyclopropanecarboxylic acid]
7 | > 6.52 | Cc1noc(-c2ccc(-c3ccc(C4(C(=O)O)CC4)cc3)cc2)c1C(O)CCCc1ccc(C(F)(F)F)cc1 (stereo not drawn) [Compound 39, 1-(4′-{4-[1-Hydroxy-4-(4-trifluoromethyl-phenyl)-butyl]-3-methyl-isoxazol-5-yl}-biphenyl-4-yl)-cyclopropanecarboxylic acid]
8 | > 6.52 | Cc1noc(-c2ccc(-c3ccc(C4(C(=O)O)CC4)cc3)cc2)c1C(O)CCCc1ccccc1C(F)(F)F (stereo not drawn) [Compound 40, 1-(4′-{4-[1-Hydroxy-4-(2-trifluoromethyl-phenyl)-butyl]-3-methyl-isoxazol-5-yl}-biphenyl-4-yl)-cyclopropanecarboxylic acid]
9 | > 6.52 | Cc1noc(-c2ccc(-c3ccc(C4(C(=O)O)CC4)cc3)cc2)c1C(O)C(C)CCc1ccccc1 (stereo not drawn) [Compound 44, 1-{4′-[4-(1-Hydroxy-2-methyl-4-phenyl-butyl)-3-methyl-isoxazol-5-yl]-biphenyl-4-yl}-cyclopropanecarboxylic acid]
10 | > 6.52 | Cc1noc(-c2ccc(-c3ccc(C4(C(=O)O)CC4)cc3)cc2)c1C(O)C(C)(C)CCc1ccccc1 (stereo not drawn) [Compound 45, 1-{4′-[4-(1-Hydroxy-2,2-dimethyl-4-phenyl-butyl)-3-methyl-isoxazol-5-yl]-biphenyl-4-yl}-cyclopropanecarboxylic acid]
11 | 4.30 to 6.00 | Cc1noc(-c2ccc(-c3ccc(C4(C(=O)O)CC4)cc3)cc2)c1C(F)(F)CCCc1ccccc1 [Compound 46, 1-{4′-[4-(1,1-Difluoro-4-phenyl-butyl)-3-methyl-isoxazol-5-yl]-biphenyl-4-yl}-cyclopropanecarboxylic acid]
12 | > 6.52 | COc1ccc(CCC(C)Nc2c(C)noc2-c2ccc(-c3ccc(C4(C(=O)O)CC4)cc3)cc2)cc1 (stereo not drawn) [Compound 50, 1-(4′-{4-[3-(4-Methoxy-phenyl)-1-methyl-propylamino]-3-methyl-isoxazol-5-yl}-biphenyl-4-yl)-cyclopropanecarboxylic acid]
13 | > 6.52 | Cc1noc(-c2ccc(-c3ccc(C4(C(=O)O)CC4)cc3)cc2)c1NC(C)CCc1ccccc1Cl (stereo not drawn) [Compound 53, 1-(4′-{4-[3-(2-Chloro-phenyl)-1-methyl-propylamino]-3-methyl-isoxazol-5-yl}-biphenyl-4-yl)-cyclopropanecarboxylic acid]
14 | > 6.52 | Cc1noc(-c2ccc(-c3ccc(C4(C(=O)O)CC4)cc3)cc2)c1NC(C)CCc1c(F)cccc1Cl (stereo not drawn) [Compound 55, 1-(4′-{4-[3-(2-Chloro-6-fluoro-phenyl)-1-methyl-propylamino]-3-methyl-isoxazol-5-yl}-biphenyl-4-yl)-cyclopropanecarboxylic acid]
15 | > 6.52 | Cc1noc(-c2ccc(-c3ccc(C4(C(=O)O)CC4)cc3)cc2)c1C(O)COCc1cccc(C(F)(F)F)c1 (stereo not drawn) [Compound 58, 1-(4′-{4-[1-Hydroxy-2-(3-trifluoromethyl-benzyloxy)-ethyl]-3-methyl-isoxazol-5-yl}-biphenyl-4-yl)-cyclopropanecarboxylic acid]
16 | > 6.52 | Cc1noc(-c2ccc(-c3ccc(C4(C(=O)O)CC4)cc3)cc2)c1C(O)COCCc1ccccc1 (stereo not drawn) [Compound 59, 1-{4′-[4-(1-Hydroxy-2-phenethyloxy-ethyl)-3-methyl-isoxazol-5-yl]-biphenyl-4-yl}-cyclopropanecarboxylic acid]
17 | > 6.52 | Cc1noc(-c2ccc(-c3ccc(C4(C(=O)O)CC4)cc3)cc2)c1C(O)C(F)(F)CCc1ccc(F)cc1 (stereo not drawn) [Compound 62, 1-(4′-{4-[2,2-Difluoro-4-(4-fluoro-phenyl)-1-hydroxy-butyl]-3-methyl-isoxazol-5-yl}-biphenyl-4-yl)-cyclopropanecarboxylic acid]
18 | > 6.52 | Cc1noc(-c2ccc(-c3ccc(C4(C(=O)O)CC4)cc3)cc2)c1C(O)CSCc1cccc(C(F)(F)F)c1 (stereo not drawn) [Compound 63, 1-(4′-{4-[1-Hydroxy-2-(3-trifluoromethyl-benzylsulfanyl)-ethyl]-3-methyl-isoxazol-5-yl}-biphenyl-4-yl)-cyclopropanecarboxylic acid]
19 | > 6.52 | Cc1noc(-c2ccc(-c3ccc(C4(C(=O)O)CC4)cc3)cc2)c1C(O)C(F)(F)CCc1ccc(C(F)(F)F)cc1 (stereo not drawn) [Compound 64, 1-(4′-{4-[2,2-Difluoro-1-hydroxy-4-(4-trifluoromethyl-phenyl)-butyl]-3-methyl-isoxazol-5-yl}-biphenyl-4-yl)-cyclopropanecarboxylic acid]
20 | > 6.52 | CCC(CCc1ccccc1)Nc1c(C)noc1-c1ccc(-c2ccc(C3(C(=O)O)CC3)cc2)cc1 (stereo not drawn) [Compound 66, 1-{4′-[4-(1-Ethyl-3-phenyl-propylamino)-3-methyl-isoxazol-5-yl]-biphenyl-4-yl}-cyclopropanecarboxylic acid]
21 | > 6.52 | Cc1noc(-c2ccc(-c3ccc(C4(C(=O)O)CC4)cc3)cc2)c1NC(C)CC(C)(C)c1ccccc1 (stereo not drawn) [Compound 69, 1-{4′-[4-(1,3-Dimethyl-3-phenyl-butylamino)-3-methyl-isoxazol-5-yl]-biphenyl-4-yl}-cyclopropanecarboxylic acid]
22 | > 6.52 | Cc1noc(-c2ccc(-c3ccc(C4(C(=O)O)CC4)cc3)cc2)c1C(O)CC(C)(C)Cc1ccccc1 (stereo not drawn) [Compound 70, 1-{4′-[4-(1-Hydroxy-3,3-dimethyl-4-phenyl-butyl)-3-methyl-isoxazol-5-yl]-biphenyl-4-yl}-cyclopropanecarboxylic acid]
23 | > 6.52 | Cc1noc(-c2ccc(-c3ccc(C4(C(=O)NS(C)(=O)=O)CC4)cc3)cc2)c1CSCCc1ccccc1 [Compound 71, N-[1-[4′-(3-Methyl-4-phenethylsulfanylmethyl-isoxazol-5-yl)-biphenyl-4-yl]-cyclopropanecarbonyl]-methanesulfonamide]
24 | > 6.52 | Cc1noc(-c2ccc(-c3ccc(C4(C(=O)NS(C)(=O)=O)CC4)cc3)cc2)c1C(O)COCCc1ccccc1 (stereo not drawn) [Compound 74, N-(1-{4′-[4-(1-Hydroxy-2-phenethyloxy-ethyl)-3-methyl-isoxazol-5-yl]-biphenyl-4-yl}-cyclopropanecarbonyl)-methanesulfonamide]
25 | > 6.52 | Cc1noc(-c2ccc(-c3ccc(C4(C(=O)NS(C)(=O)=O)CC4)cc3)cc2)c1CC(F)(F)CCc1ccccc1 [Compound 75, N-(1-{4′-[4-(2,2-Difluoro-4-phenyl-butyl)-3-methyl-isoxazol-5-yl]-biphenyl-4-yl}-cyclopropanecarbonyl)-methanesulfonamide]
26 | > 6.52 | Cc1ccc(S(=O)(=O)NC(=O)C2(c3ccc(-c4ccc(-c5onc(C)c5C(O)CCCc5ccccc5)cc4)cc3)CC2)cc1 (stereo not drawn) [Compound 78, N-(1-{4′-[4-(1-Hydroxy-4-phenyl-butyl)-3-methyl-isoxazol-5-yl]-biphenyl-4-yl}-cyclopropanecarbonyl)-4-methyl-benzenesulfonamide]
27 | > 6.52 | Cc1noc(-c2ccc(-c3ccc(C4(C(=O)NS(=O)(=O)C5CC5)CC4)cc3)cc2)c1C(O)CCCc1ccccc1 (stereo not drawn) [Compound 79]
